Results on 34 compounds are retold here after patent US20110086834A1, “ALKYNYL ALCOHOLS AS KINASE INHIBITORS” (AMGEN INC., priority 2008, published 2011).

T1 sequence (Q99558 400-655 limits assumed): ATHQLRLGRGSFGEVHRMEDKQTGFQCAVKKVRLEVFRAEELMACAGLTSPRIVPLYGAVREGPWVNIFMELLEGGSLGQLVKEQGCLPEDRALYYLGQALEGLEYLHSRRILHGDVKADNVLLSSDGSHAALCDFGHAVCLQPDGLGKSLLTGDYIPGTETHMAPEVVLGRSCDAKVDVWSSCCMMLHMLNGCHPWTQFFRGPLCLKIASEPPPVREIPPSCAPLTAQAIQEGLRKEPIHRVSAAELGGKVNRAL

This experiment addresses T1, NIK (Homo sapiens, UniProt Q99558).
T1 construct: Both assays utilize a truncated form of NIK containing only the catalytic domain; made in house; host or cells: baculovirus expression system (insect cells implied)
Description: homogenous time resolved fluorescence (HTRF) assay for NIK Ki measurement. Conditions: truncated NIK (catalytic domain only), autophosphorylation; 10 nM enzyme; 20, 100, 200 or 500 μM ATP; room temperature, 2 hours; read-out: Ki activity in the homogenous time resolved fluorescence (HTRF) assay for NIK. Format: biochemical. As to the method: Two formats of biochemical assays are implemented: (1) chemiluminescent (CL) assay for NIK IC50 determination; (2) homogenous time resolved fluorescence (HTRF) assay for NIK Ki measurement. […] The NIK proteins are purified with baculovirus expression system and further biotinylated with N-hydroxysuccinamide biotin ester (Sigma). […] The reaction mixtures are then immobilized on a Streptavidin-coated plate (Pierce). […] For the HTRF assay, 10 nM of enzyme are incubated with compounds in the presence of 20, 100, 200, or 500 μM of ATP in a buffer with 20 mM of Hepes pH7.5, 20 mM of MgCl2, 0.2% of Tween 20 and 1 mM of DTT at room temperature for 2 hours.
In general terms: In TR-FRET formats the signal depends on donor and acceptor labels being close together.
A word on the Ki: it is a dissociation constant, usually derived from enzyme kinetics or from competition with a known ligand. Take `COc1cc(C#CC2(O)CCCC2)cc2c1c(CO)cn2-c1nc(N)ncc1F` [Example 103, 1-(2-(1-(2-amino-5-fluoropyrimidin-4-yl)-3-(hydroxymethyl)-4-methoxy-1H-indol-6-yl)ethynyl)cyclopentanol]: the inhibition constant Ki is less than 1 µM.
Under `COCCOc1cnc(N)nc1-c1c[nH]c2ccc(C#CC3(O)CCOCC3)cc12` [Example 226, 4-((3-(2-Amino-5-(2-methoxyethoxy)-4-pyrimidinyl)-1H-indol-5-yl)ethynyl)tetrahydro-2H-pyran-4-ol] stands 1 to 30 µM; under `Nc1ncc(OCc2cccnc2)c(-c2c[nH]c3ccc(C#CC4(O)CCCC4)cc23)n1` [Example 232, 1-((3-(2-Amino-5-(3-pyridinylmethoxy)-4-pyrimidinyl)-1H-indol-5-yl)ethynyl)cyclopentanol], less than 1 µM; under `CC(O)(C#Cc1ccc(O[C@H]2CCOC2)c(Nc2ccncc2)c1)c1nccs1` (stereo partly shown) [Example 169], 1 to 30 µM.
Consider `CC(O)(C#Cc1ccc2c(c1)N(c1nc(N)ncc1Cl)CC21CCS(=O)(=O)CC1)c1nccs1` (racemic) [Example 215, (rac)-4-(1-(2-Amino-5-chloro-4-pyrimidinyl)-1′,1′-dioxido-1,2,2′,3′,5′,6′-hexahydrospiro[indole-3,4′-thiopyran]-6-yl)-2-(1,3-thiazol-2-yl)-3-butyn-2-ol], for which the inhibition constant Ki was less than 1 µM.
Under `CC1(C)CN(c2nc(N)nc3[nH]cnc23)c2cc(C#CC3(O)CCCC3)ccc21` [Example 75, 1-((1-(2-amino-9H-purin-6-yl)-3,3-dimethyl-2,3-dihydro-1H-indol-6-yl)ethynyl)cyclopentanol] stands less than 1 µM.
With `Cc1nc(C)c(C(C)(O)C#Cc2ccc3c(c2)N(c2ccnc(N)n2)CC3)s1` (stereo not shown) [Example 283, 4-(1-(2-Amino-4-pyrimidinyl)-2,3-dihydro-1H-indol-6-yl)-2-(2,4-dimethyl-1,3-thiazol-5-yl)-3-butyn-2-ol] the figure was 1 to 30 µM.
Regarding `Cc1cc([C@](C)(O)C#Cc2ccc(F)c(Nc3nc(N)ncc3Cl)c2)no1` [Example 176, (R)-4-(3-(2-Amino-5-chloropyrimidin-4-ylamino)-4-fluorophenyl)-2-(5-methylisoxazol-3-yl)but-3-yn-2-ol], the inhibition constant (Ki) was less than 1 µM.
Under `CC(O)(C#Cc1cccc(Nc2ccncn2)n1)c1nccs1` (stereo not shown) [Example 173, 4-(6-(pyrimidin-4-ylamino)pyridin-2-yl)-2-(thiazol-2-yl)but-3-yn-2-ol] stands less than 1 µM; under `C[C@](O)(C#Cc1ccc2c(c1)N(c1ccnc(N)n1)CC2)c1nccs1` [Example 297, (2S)-4-(1-(2-amino-4-pyrimidinyl)-2,3-dihydro-1H-indol-6-yl)-2-(1,3-thiazol-2-yl)-3-butyn-2-ol], less than 1 µM; under `CC(O)(C#Cc1ccc2c(c1)N(c1nc(N)ncc1Cl)CC2(C)C)c1ccn[nH]1` (stereo not shown) [Example 80, 4-(1-(2-amino-5-chloropyrimidin-4-yl)-3,3-dimethylindolin-6-yl)-2-(1H-pyrazol-5-yl)but-3-yn-2-ol and 4-(1-(2-amino-5-chloropyrimidin-4-yl)-3,3-dimethylindolin-6-yl)-2-(1H-pyrazol-3-yl)but-3-yn-2-ol], less than 1 µM.
In the case of `CN1CCC2(C1)CN(c1nc(N)ncc1Cl)c1cc(C#CC3(O)CCCC3)ccc12` (racemic) [Example 188, 1-((1-(2-Amino-5-chloro-4-pyrimidinyl)-r-methyl-1,2-dihydrospiro[indole-3,3′-pyrrolidin]-6-yl)ethynyl)cyclopentanol], the Ki is less than 1 µM.
With `Cc1cc([C@](C)(O)C#Cc2ccc3c(c2)N(c2nc(N)ncc2Cl)CC3)on1` (single isomer, unassigned) [Example 29] the figure was less than 1 µM; with `C[C@@](O)(C#Cc1ccc2[nH]cc(-c3ccncn3)c2c1)c1nccs1` [Example 117, (2R)-4-(3-(pyrimidin-4-yl)-1H-indol-5-yl)-2-(thiazol-2-yl)but-3-yn-2-ol], less than 1 µM.
For `COc1ccc(C#C[C@@](C)(O)c2nccs2)cc1Nc1nc(N)ncc1Cl` [Example 146, (R)-4-(3-(2-Amino-5-chloropyrimidin-4-ylamino)-4-methoxyphenyl)-2-(thiazol-2-yl)but-3-yn-2-ol], the inhibition constant (Ki) was less than 1 µM.
With `COCCNC(=O)c1c(-c2ccncn2)c2cc(C#CC(C)(O)c3nccs3)ccc2n1C` (stereo not shown) [Example 90, 5-(3-hydroxy-3-(thiazol-2-yl)but-1-ynyl)-N-(2-methoxyethyl)-1-methyl-3-(pyrimidin-4-yl)-1H-indole-2-carboxamide] the figure was less than 1 µM; with `CC(O)(C#Cc1ccc2c(c1)N(c1nc(N)ncc1Cl)CC2)c1nc(CO)cs1` (stereo not shown) [Example 35, 4-(1-(2-amino-5-chloropyrimidin-4-yl)indolin-6-yl)-2-(4-(hydroxymethyl)thiazol-2-yl)but-3-yn-2-ol], 1 to 30 µM.
Take `Nc1ncc2c(n1)-c1c([nH]c3ccc(C#CC4(O)CCCCC4)cc13)CCC2` [Example 239, 1-((2-Amino-5,6,7,8-tetrahydropyrimido[4′,′:3,4]cyclohepta[1,2-b]indol-11-yl)ethynyl)cyclohexanol]: the Ki is less than 1 µM.
With `Cc1cc(C(C)(O)C#Cc2ccc3c(c2)N(c2ccnc(N)n2)CC3)c(C)o1` (stereo not shown) [Example 279, 4-(1-(2-Amino-4-pyrimidinyl)-2,3-dihydro-1H-indol-6-yl)-2-(2,5-dimethyl-3-furanyl)-3-Butyn-2-ol] the figure was 1 to 30 µM; with `CC(O)(C#Cc1ccc2c(c1)N(c1nc(N)ncc1Cl)CC2)c1cc(F)ccn1` (stereo not shown) [Example 11, 4-(1-(2-amino-5-chloropyrimidin-4-yl)indolin-6-yl)-2-(4-fluoropyridin-2-yl)but-3-yn-2-ol], 1 to 30 µM; with `Cc1cc(C(C)(O)C#Cc2ccc3c(c2)N(c2nc(N)ncc2Cl)C[C@@]32CCOC2)no1` (single isomer, unassigned) [Example 203, 4-((3R*)-1′-(2-Amino-5-chloro-4-pyrimidinyl)-1′,2′,4,5-tetrahydrospiro[furan-3,3′-indol]-6′-yl)-2-(5-methyl-3-isoxazolyl)-3-butyn-2-ol], less than 1 µM.
Turning to `CC1(CO)CN(c2nc(N)nc3[nH]cnc23)c2cc(C#CC3(O)CCCC3)ccc21` (stereo not shown) [Example 74, 1-((1-(2-amino-9H-purin-6-yl)-3-(hydroxymethyl)-3-methyl-2,3-dihydro-1H-indol-6-yl)ethynyl)cyclopentanol], the Ki is less than 1 µM.
As to `COCC1(C)CN(c2nc(N)nc3[nH]cnc23)c2cc(C#CC3(O)CCCC3)ccc21` (single isomer, unassigned) [Example 70, 1-(((3R*)-1-(2-amino-9H-purin-6-yl)-3-(methoxymethyl)-3-methyl-2,3-dihydro-1H-indol-6-yl)ethynyl)cyclopentanol], the Ki is less than 1 µM.
Regarding `CC(O)(C#Cc1ccc2c(c1)N(c1ccncc1)CC2(C)C)c1ncco1` (stereo not shown) [Example 307, 4-(3,3-Dimethyl-1-(4-pyridinyl)-2,3-dihydro-1H-indol-6-yl)-2-(1,3-oxazol-2-yl)-3-butyn-2-ol], the Ki was less than 1 µM.
Turning to `CC(O)(C#Cc1ccc2c(c1)N(c1ccncc1Cl)CC2(C)C)c1ncco1` (stereo not shown) [Example 314, 4-(1-(3-chloro-4-pyridinyl)-3,3-dimethyl-2,3-dihydro-1H-indol-6-yl)-2-(1,3-oxazol-2-yl)-3-butyn-2-ol], the Ki is less than 1 µM.
With `COc1cc(C#CC2(O)CCCC2)cc2c1CCN2c1nc(N)ncc1F` [Example 18, 1-(2-(1-(2-amino-5-fluoropyrimidin-4-yl)-4-methoxyindolin-6-yl)ethynyl)cyclopentanol] the figure was less than 1 µM; with `Cc1cc([C@@](C)(O)C#Cc2ccc3c(c2)N(c2nc(N)ncc2Cl)CC32CCOCC2)no1` (single isomer, unassigned) [Example 211a], 1 to 30 µM; with `Nc1ncc2c(n1)-c1c(nc3ccc(C#CC4(O)CCCC4)cn13)CCC2` [Example 249, 1-((2-amino-6,7-dihydro-5H-pyrido[1″,2″:1′,2′]imidazo[4′,′:6,7]cyclohepta[1,2-d]pyrimidin-11-yl)ethynyl)cyclopentanol], less than 1 µM.
Under `COCCN1Cc2cnc(N)nc2-c2c(n(C)c3ccc(C#CC4(O)CCCC4)cc23)C1=O` [Example 246, 2-Amino-1′-((1-hydroxycyclopentyl)ethynyl)-6-(2-methoxyethyl)-8-methyl-5,8-dihydropyrimido[4′,5′:5,6]azepino[3,4-b]indol-7(6H)-one] stands less than 1 µM.
With `Cc1ncc2c(n1)-c1c([nH]c3ccc(C#CC(C)(C)O)cc13)CCC2` [Example 242, 2-Methyl-4-(2-methyl-5,6,7,8-tetrahydropyrimido[4′,′:3,4]cyclohepta[1,2-b]indol-1′-yl)-3-butyn-2-ol] the figure was 1 to 30 µM.
For the compound `CC(O)(C#Cc1cccc(Nc2nc(N)ncc2Cl)n1)c1nccs1` (stereo not shown) [Example 147, 4-(6-(2-Amino-5-chloropyrimidin-4-ylamino)pyridin-2-yl)-2-(thiazol-2-yl)but-3-yn-2-ol], the Ki is 1 to 30 µM.
Turning to `N#Cc1cnc(N)nc1-c1c[nH]c2ccc(C#CC3(O)CCCC3)cc12` [Example 108, 2-amino-4-(5-(2-(1-hydroxycyclopentyl)ethynyl)-1H-indol-3-yl)pyrimidine-5-carbonitrile], the Ki is less than 1 µM.
Under `C[C@](O)(C#Cc1ccc2c(c1)N(c1nc(N)ncc1Cl)CC21COC1)c1nccs1` [Example 81] stands 1 to 30 µM; under `CN1CCC2(C1)CN(c1nc(N)ncc1Cl)c1cc(C#CC3(O)CCCC3)ccc12` (single isomer, unassigned) [Example 192, 1-(((3S*)-1-(2-Amino-5-chloro-4-pyrimidinyl)-1′-methyl-1,2-dihydrospiro[indole-3,3′-pyrrolidin]-6-yl)ethynyl)cyclopentanol], less than 1 µM.
